Patent EP2607478A1, “Phenanthroline treated MSC” (Universiteit Twente, priority 2011, dated 2013)

Test system: MSCs
Assay: Whole genome expression analysis (Illumina microarray) of treated MSCs
Assay type: cell-based, Human
Conditions: DFO versus Bas
Description: MSCs were seeded in T25 flasks at 5000 cells/cm^2 and allowed to attach overnight in proliferation medium. […] After 48 hours, RNA was isolated as described above. From 500 ng of RNA, cRNA was synthesized using the Illumina TotalPrep RNA amplification Kit (Ambion), according to the manufacturer's protocol and the quality of RNA and cRNA was verified on a Bioanalyzer 2100 (Agilent). Microarrays were performed using Illumina HT-12 v4 expression Beadchips, according to the manufacturer's protocol. Briefly, 750 ng of cRNA was hybridized on the array overnight after which the array was washed and blocked. Then, by addition of streptavidin Cy-3 a fluorescent signal was developed. Arrays were scanned on an Illumina iScan reader and raw intensity values were background corrected in GenomeStudio (Illumina). Further data processing and statistical testing were performed with R and Bioconductor statistical software (www.bioconductor.org), using package lumi. Raw intensity values were transformed using variance stabilization and a quantile normalization was performed. A linear modelling approach with empirical Bayesian methods, as implemented in Limma package (54), was applied for differential expression analysis of the resulting probe-level expression values. A gene list, containing only those genes with an absolute 1.5-fold change between different treatments, was uploaded to Ingenuity Pathway Analysis (IPA) software and used for core analysis. Pathways or networks with a p-value of 0.05 were considered statistically significant.

With `CC(=O)N(O)CCCCCNC(=O)CCC(=O)N(O)CCCCCNC(=O)CCC(=O)N(O)CCCCCN` [DFO, reference compound] the “logFC(D142_ DFO - D142_BAS) SNORD13” value (ProbeID ILMN_1892403) was 2,51, the “logFC(D142_ DFO - D142_BAS) GADD45A” value (ProbeID ILMN_2052208) was 2,60 and the “logFC(D142_ DFO - D142_BAS) LDLR” value (ProbeID ILMN_2053415) was -2,03. For the same compound, the “logFC(D142_ DFO - D142_BAS) PTGS2” value (ProbeID ILMN_2054297) was 2,25, the “logFC(D142_ DFO - D142_BAS) GAS1” value (ProbeID ILMN_2062701) was -2,07 and the “logFC(D142_ DFO - D142_BAS) PMAIP1” value (ProbeID ILMN_2098446) was 2,11. The “logFC(D142_ DFO - D142_BAS) GOLGA8B” value (ProbeID ILMN_2103547) was 2,12, the “logFC(D142_ DFO - D142_BAS) EEF1A2” value (ProbeID ILMN_2108735) was 2,72 and the “logFC(D142_ DFO - D142_BAS) CTHRC1” value (ProbeID ILMN_2117508) was -2,46. The “logFC(D142_ DFO - D142_BAS) HBEGF” value (ProbeID ILMN_2121408) was 2,13, the “logFC(D142_ DFO - D142_BAS) IGFBP5” value (ProbeID ILMN_2132982) was 2,53 and the “logFC(D142_ DFO - D142_BAS) PLIN2” value (ProbeID ILMN_2138765) was 2,74. The “logFC(D142_ DFO - D142_BAS) HIST2H2AA3” value (ProbeID ILMN_2144426) was 2,07, the “logFC(D142_ DFO - D142_BAS) GBP1” value (ProbeID ILMN_2148785) was -2,41 and the “logFC(D142_ DFO - D142_BAS) SERPINB2” value (ProbeID ILMN_2150851) was 3,06. The “logFC(D142_ DFO - D142_BAS) SERPINB2” value (ProbeID ILMN_2150856) was 3,04, the “logFC(D142_ DFO - D142_BAS) ALDH1B1” value (ProbeID ILMN_2150894) was -2,55 and the “logFC(D142_ DFO - D142_BAS) LUM” value (ProbeID ILMN_2167805) was -2,01. The “logFC(D142_ DFO - D142_BAS) PFKFB3” value (ProbeID ILMN_2186061) was 4,03, the “logFC(D142_ DFO - D142_BAS) RRAD” value (ProbeID ILMN_2186137) was 3,12 and the “logFC(D142_ DFO - D142_BAS) GDF15” value (ProbeID ILMN_2188862) was 6,31. The “logFC(D142_ DFO - D142_BAS) HSPB7” value (ProbeID ILMN_2200836) was -2,12, the “logFC(D142_ DFO - D142_BAS) TP53INP1” value (ProbeID ILMN_2214197) was 2,62 and the “logFC(D142_ DFO - D142_BAS) PGK1” value (ProbeID ILMN_2216852) was 2,75. For the same compound, the “logFC(D142_ DFO - D142_BAS) KIFC1” value (ProbeID ILMN_2222008) was -2,05, the “logFC(D142_ DFO - D142_BAS) BEX1” value (ProbeID ILMN_2234697) was -3,45 and the “logFC(D142_ DFO - D142_BAS) LEPR” value (ProbeID ILMN_2234956) was -2,33. For the same compound, the “logFC(D142_ DFO - D142_BAS) UBE2C” value (ProbeID ILMN_2301083) was -2,01, the “logFC(D142_ DFO - D142_BAS) VCAM1” value (ProbeID ILMN_2307903) was -3,16 and the “logFC(D142_ DFO - D142_BAS) MAFF” value (ProbeID ILMN_2322375) was 2,07. For the same compound, the “logFC(D142_ DFO - D142_BAS) PORCN” value (ProbeID ILMN_2337058) was 2,69, the “logFC(D142_ DFO - D142_BAS) AK3L1” value (ProbeID ILMN_2338038) was 2,28 and the “logFC(D142_ DFO - D142_BAS) FMO3” value (ProbeID ILMN_2344283) was -2,30. The “logFC(D142_ DFO - D142_BAS) MKNK2” value (ProbeID ILMN_2347068) was 2,45, the “logFC(D142_ DFO - D142_BAS) BIRC5” value (ProbeID ILMN_2349459) was -2,14 and the “logFC(D142_ DFO - D142_BAS) VLDLR” value (ProbeID ILMN_2361862) was 3,17. For the same compound, the “logFC(D142_ DFO - D142_BAS) ATF3” value (ProbeID ILMN_2374865) was 3,23, the “logFC(D142_ DFO - D142_BAS) VEGFA” value (ProbeID ILMN_2375879) was 3,40 and the “logFC(D142_ DFO - D142_BAS) KCNK2” value (ProbeID ILMN_2376953) was -2,07. For the same compound, the “logFC(D142_ DFO - D142_BAS) ANGPTL4” value (ProbeID ILMN_2386444) was 2,64, the “logFC(D142_ DFO - D142_BAS) IGFBP1” value (ProbeID ILMN_2387385) was 2,45 and the “logFC(D142_ DFO - D142_BAS) MTHFD2” value (ProbeID ILMN_2405521) was 2,84. The “logFC(D142_ DFO - D142_BAS) PODXL” value (ProbeID ILMN_2413158) was 2,92, the “logFC(D142_ DFO - D142_BAS) LOC100133609” value (ProbeID ILMN_3237270) was 2,49 and the “logFC(D142_ DFO - D142_BAS) BEND5” value (ProbeID ILMN_3237448) was 2,61. For the same compound, the “logFC(D142_ DFO - D142_BAS) HIST2H2AA4” value (ProbeID ILMN_3242900) was 2,11, the “logFC(D142_ DFO - D142_BAS) LOC644350” value (ProbeID ILMN_3248701) was 2,60 and the “logFC(D142_ DFO - D142_BAS) LOC728934” value (ProbeID ILMN_3248758) was 2,47. For the same compound, the “logFC(D142_ DFO - D142_BAS) LOC644237” value (ProbeID ILMN_3283772) was 2,17 and the “logFC(D142_ DFO - D142_BAS) LOC729779” value (ProbeID ILMN_3305273) was 3,12.
